The target in test [1] is EGFR WT in Ba/F3 cells (Homo sapiens (Human), UniProt P00533). In words: Ba/F3 pEGFR assay (AlphaLISA p-EGFR Tyr1068). In kind it is cell-based. To be noted: 2 hrs treatment, media supplemented with EGF. How it is done: Cellular activity was determined using the Ba/F3 system for studying oncogenic mutant kinases (Warmuth 2007). […] Transduced cells were maintained in RPMI 1640 with 10% FBS. EGFR WT transduced cells were grown in media supplemented with EGF. To assay cellular activity of inhibitors, cells were treated with inhibitor from 1000X DMSO stock dilutions and incubated for 2 hrs at 37° C. 5% CO2. Subsequently, p-EGFR (Tyr1068) was quantified using a commercial sandwich immunoassay (PerkinElmer AlphaLISA SureFire assay; ALSU-PEGFR) according to the manufacturer's instructions. […] Curr Opin Oncol 19, 55-60 (2007), which is incorporated herein in its entirety.
EGFR WT in Ba/F3 cells, sequence (P00533 25-1210): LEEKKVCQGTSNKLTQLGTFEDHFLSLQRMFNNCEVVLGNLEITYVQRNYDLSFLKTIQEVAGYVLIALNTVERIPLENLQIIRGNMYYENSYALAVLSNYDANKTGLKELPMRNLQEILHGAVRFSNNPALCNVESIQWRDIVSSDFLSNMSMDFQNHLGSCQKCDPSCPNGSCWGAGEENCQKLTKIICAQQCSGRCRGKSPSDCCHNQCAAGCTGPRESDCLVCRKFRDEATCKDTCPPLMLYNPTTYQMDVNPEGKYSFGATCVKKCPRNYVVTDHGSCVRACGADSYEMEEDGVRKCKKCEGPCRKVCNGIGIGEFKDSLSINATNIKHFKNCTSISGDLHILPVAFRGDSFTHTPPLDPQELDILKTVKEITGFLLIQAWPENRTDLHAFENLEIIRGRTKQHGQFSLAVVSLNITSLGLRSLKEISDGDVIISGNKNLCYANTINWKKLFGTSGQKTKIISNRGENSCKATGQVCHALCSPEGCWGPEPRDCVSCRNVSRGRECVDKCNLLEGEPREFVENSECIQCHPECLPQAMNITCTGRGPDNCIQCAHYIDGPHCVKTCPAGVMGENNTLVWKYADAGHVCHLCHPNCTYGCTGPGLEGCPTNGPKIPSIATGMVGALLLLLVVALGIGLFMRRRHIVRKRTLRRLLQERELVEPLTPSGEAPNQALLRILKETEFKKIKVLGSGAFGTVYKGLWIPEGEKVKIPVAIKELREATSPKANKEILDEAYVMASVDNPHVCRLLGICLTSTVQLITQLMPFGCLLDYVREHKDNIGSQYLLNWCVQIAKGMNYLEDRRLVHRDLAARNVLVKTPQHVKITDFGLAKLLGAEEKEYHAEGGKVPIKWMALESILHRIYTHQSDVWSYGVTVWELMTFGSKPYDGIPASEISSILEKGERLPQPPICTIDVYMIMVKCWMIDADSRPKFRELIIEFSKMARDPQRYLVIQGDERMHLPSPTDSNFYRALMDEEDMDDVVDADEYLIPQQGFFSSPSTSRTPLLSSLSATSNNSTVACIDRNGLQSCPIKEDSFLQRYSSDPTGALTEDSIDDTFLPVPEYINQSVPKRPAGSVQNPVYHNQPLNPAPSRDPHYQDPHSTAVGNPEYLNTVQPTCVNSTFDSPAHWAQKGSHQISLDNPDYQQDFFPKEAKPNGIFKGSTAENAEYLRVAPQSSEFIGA
On the technique in general: Alpha assays give light when donor and acceptor beads are brought close together.

Test [2] concerns the target EGFR WT (Homo sapiens (Human), UniProt P00533). Description: EGFR biochemical assay (AssayQuant chelation-enhanced fluorescence). To be noted: 30 min preincubation, reaction time 360 min.

The values below come from patent publication US20240409609A1, “REVERSIBLE LYSINE COVALENT MODIFIERS OF EGFR AND USES THEREOF” (Terremoto Biosciences, Inc., priority 2021, published 2024).

EGFR WT, sequence (P00533 668-1210): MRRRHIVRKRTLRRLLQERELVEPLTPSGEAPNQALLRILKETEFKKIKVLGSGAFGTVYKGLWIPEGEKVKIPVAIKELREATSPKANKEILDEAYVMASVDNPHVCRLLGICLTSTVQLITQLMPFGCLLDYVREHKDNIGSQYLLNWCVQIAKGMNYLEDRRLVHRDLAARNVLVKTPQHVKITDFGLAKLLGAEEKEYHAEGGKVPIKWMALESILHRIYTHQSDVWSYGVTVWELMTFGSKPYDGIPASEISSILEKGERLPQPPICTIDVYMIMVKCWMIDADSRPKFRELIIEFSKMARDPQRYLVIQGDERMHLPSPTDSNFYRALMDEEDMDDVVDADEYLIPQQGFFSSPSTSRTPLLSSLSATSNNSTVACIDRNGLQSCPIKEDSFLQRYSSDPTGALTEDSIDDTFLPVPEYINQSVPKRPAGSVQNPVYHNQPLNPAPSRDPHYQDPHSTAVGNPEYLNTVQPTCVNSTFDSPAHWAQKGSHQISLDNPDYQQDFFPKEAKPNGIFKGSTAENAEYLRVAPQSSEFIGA

For orientation: IC50 means the concentration that inhibits the measured activity by half. Consider `CN1CCN(c2ccc3[nH]/c(=N\C(=O)c4ccnc(Oc5cccc(O)c5C=O)c4)n(CC(C)(C)O)c3c2)CC1` [Compound 56], for which the IC50 in test [1] came out at 763 nM; in test [2], 278 nM.
Regarding `COc1cc(N2CCC(N3CCN(C)CC3)CC2)ccc1Nc1ncc(-c2ccc(O)c(C=O)c2)c(Oc2ccccc2)n1` [Compound 21], in test [2], the 50% inhibitory concentration (IC50) worked out at 271 nM.
For `CN1CCN(Cc2ccc3[nH]/c(=N\C(=O)c4ccnc(-n5ccc(-c6cccc(O)c6C=O)n5)c4)n(CC(C)(C)O)c3c2)CC1` [Compound 83], the IC50 in test [1] was more than 10000 nM; in test [2], 131 nM.
`CN1CCN(Cc2ccc3[nH]/c(=N\C(=O)c4ccnc(C#Cc5cccc(N)c5C=O)c4)n(CC(C)(C)O)c3c2)CC1` [Compound 99]: the IC50 was 1290 nM in test [1] and 129 nM in test [2].
For the compound `O=Cc1c(O)cccc1Oc1cc(C(=O)/N=c2\[nH]c3ccccc3n2[C@H]2CC[C@@H](O)CC2)ccn1` [Compound 122], the results for the IC50 in test [1] and in test [2] were 5260 nM and 8.24 nM, respectively.
As for `CC(C)(O)Cn1/c(=N/C(=O)c2ccnc(C#Cc3cccc(O)c3C=O)c2)[nH]c2ccc(CN3CCOCC3)cc21` [Compound 78], the 50% inhibitory concentration (IC50) in test [1] was more than 10000 nM; in test [2] it was 8.81 nM.
For the compound `CN1CCN(Cc2ccc3[nH]/c(=N\C(=O)c4cncc(Oc5cccc(O)c5C=O)n4)n(CC(C)(C)O)c3c2)CC1` [Compound 108], the IC50 was more than 10000 nM in test [1] and 81 nM in test [2].
With `CC(C)(O)Cn1/c(=N/C(=O)c2ccnc(C#Cc3cccc(O)c3C=O)c2)[nH]c2ccccc21` [Compound 127], the figures for the IC50 in test [1] and in test [2] were more than 10000 nM and 38.2 nM, respectively.
For the compound `COC(=O)Nc1cccc(C#Cc2cc(C(=O)/N=c3\[nH]c4ccc(CN5CCN(C)CC5)cc4n3CC(C)(C)O)ccn2)c1C=O` [Compound 84], the IC50 in test [1] turned out to be 879 nM; in test [2] it was 61 nM.
Regarding `CN1CCN(Cc2ccc3[nH]/c(=N\C(=O)c4ccnc(-c5ccn(-c6cccc(O)c6C=O)n5)c4)n(CC(C)(C)O)c3c2)CC1` [Compound 94], the IC50 in test [1] is more than 10000 nM; in test [2], 444 nM.
On the same counts, the results for `CN1CCN(C(=O)c2ccc3[nH]/c(=N\C(=O)c4ccnc(Oc5cccc(O)c5C=O)c4)n(CC(C)(C)O)c3c2)CC1` [Compound 71] are 4950 nM and 10.4 nM.
Regarding `COc1cc(N(C)CCN(C)C)c(NC(C)=O)cc1Nc1nccc(-c2cn(Cc3cccc(O)c3C=O)c3ccccc23)n1` [Compound 28], the half-maximal inhibitory concentration (IC50) is more than 10000 nM in test [1] and more than 1000 nM in test [2].
For `COc1cc(N2CCC(N3CCN(C)CC3)CC2)ccc1Nc1ncc(Cl)c(Nc2cccc(-c3cccc(O)c3C=O)c2)n1` [Compound 26], the 50% inhibitory concentration (IC50) in test [2] is 872 nM.
For `CC(C)(O)Cn1/c(=N/C(=O)c2ccnc(CCc3cccc(O)c3C=O)c2)[nH]c2ccccc21` [Compound 135], the IC50 in test [1] came out at 5200 nM; in test [2], 80.1 nM.
As to `CN1CCN(Cc2ccc3[nH]/c(=N\C(=O)c4ccnc(C#Cc5cccc(NC(=O)C6CC6)c5C=O)c4)n(CC(C)(C)O)c3c2)CC1` [Compound 87], the figures for the IC50 in test [1] and in test [2] were 267 nM and 42 nM, respectively.
Consider `CN1CCN(Cc2ccc3[nH]/c(=N\C(=O)c4cc(C=O)nc(Oc5cccc(O)c5C=O)c4)n(CC(C)(C)O)c3c2)CC1` [Compound 81], for which the IC50 was more than 10000 nM in test [1] and 28 nM in test [2].
Regarding `CN1CCN(Cc2ccc3[nH]/c(=N\C(=O)c4ccnc(C#Cc5cncc(O)c5C=O)c4)n(CC(C)(C)O)c3c2)CC1` [Compound 100], the IC50 in test [1] was more than 10000 nM; in test [2], 74.3 nM.
Regarding `CN1CCN(Cc2ccc3[nH]/c(=N\C(=O)c4cccc(Oc5cccc(O)c5C=O)n4)n(CC(C)(C)O)c3c2)CC1` [Compound 93], the results for the IC50 in test [1] and in test [2] were more than 10000 nM and 490 nM, respectively.
On to `CN1CCN(Cc2ccc3[nH]/c(=N\C(=O)c4cc(F)nc(Oc5cccc(O)c5C=O)c4)n(CC(C)(C)O)c3c2)CC1` [Compound 60], for which the IC50 in test [1] was determined as 2850 nM; in test [2] it was 8.29 nM.
With `COc1cc(N(C)CCN(C)C)ccc1Nc1ncc(Cl)c(-c2cn(Cc3cccc(C=O)c3O)c3ccccc23)n1` [Compound 31], in test [2], the half-maximal inhibitory concentration (IC50) is more than 1000 nM.
Turning to `COc1cc(N2CCC(N3CCN(C)CC3)CC2)ccc1Nc1ncc(Cl)c(Nc2ccccc2-c2c(OC)ccc(C=O)c2O)n1` [Compound 34], the IC50 in test [2] amounted to 278 nM.
Consider `CC(C)c1ccc(N2CC(CS(C)(=O)=O)C2)c2cnc(Nc3ccnc(-c4cccc(-c5cccc(O)c5C=O)c4)n3)cc12` [Compound 46], for which the IC50 in test [2] is more than 1000 nM.
As for `COc1cc(N2CCC(N3CCN(C)CC3)CC2)ccc1Nc1ncc(-c2ccc(O)c(C=O)c2)c(Nc2ccccc2P(C)(C)=O)n1` [Compound 27], the IC50 in test [2] was more than 1000 nM.
Take `COc1cc(N2CCC(N3CCN(C)CC3)CC2)ccc1Nc1ncc(Cl)c(Nc2cccc(-c3cccc(C=O)c3O)c2)n1` [Compound 25]: in test [2], the IC50 was found to be 87.5 nM.
On to `CN1CCN(Cc2ccc3[nH]/c(=N\C(=O)c4ccnc(N(C)Cc5cccc(O)c5C=O)c4)n(CC(C)(C)O)c3c2)CC1` [Compound 96], for which the half-maximal inhibitory concentration (IC50) in test [2] is 508 nM.
The same measure, in the same setting: under `CC(C)c1ccc(N2CC(CS(C)(=O)=O)C2)c2cnc(Nc3ccnc(C#Cc4cccc(O)c4C=O)n3)cc12` [Compound 41] stands 22.2 nM; under `COc1cc(N2CCC(N3CCN(C)CC3)CC2)ccc1Nc1ncc(C#Cc2ccc(O)c(C=O)c2)c(Nc2ccccc2)n1` [Compound 17], 98.4 nM.
Regarding `CC(C)c1ccc(N2CC(CS(C)(=O)=O)C2)c2cnc(Nc3ccnc(N(C)Cc4cccc(O)c4C=O)n3)cc12` [Compound 43], the half-inhibitory concentration (IC50) in test [2] was more than 1000 nM.
Take `COc1cc(N2CCC(N3CCN(C)CC3)CC2)ccc1Nc1ncc(C#Cc2cccc(C=O)c2O)c(Nc2ccccc2)n1` [Compound 16]: the IC50 in test [2] is 36.4 nM.
As to `COc1cc(N2CCC(N3CCN(C)CC3)CC2)ccc1Nc1ncc(-c2ccc(O)c(C=O)c2)c(-c2ccccc2)n1` [Compound 22], the IC50 in test [2] amounted to 211 nM.
`COc1cc(N(C)CCN(C)C)c(NC(C)=O)cc1Nc1nccc(-c2cn(Cc3ccc(O)c(C=O)c3)c3ccccc23)n1` [Compound 30]: in test [2], the IC50 was 255 nM.
In the case of `COc1cc(N(C)CCN(C)C)ccc1Nc1ncc(Cl)c(-c2cn(Cc3cccc(O)c3C=O)c3ccccc23)n1` [Compound 32], in test [2], the IC50 turned out to be 526 nM.
The same measure, in the same setting: under `COc1cc(N2CCC(N3CCN(C)CC3)CC2)ccc1Nc1ncc(C#Cc2cccc(O)c2C=O)c(Nc2ccccc2)n1` [Compound 18] stands 9.08 nM; under `COc1cc(N2CCC(N3CCN(C)CC3)CC2)ccc1Nc1ncc(-c2ccc(C=O)c(O)c2)c(Nc2ccccc2P(C)(C)=O)n1` [Compound 24], 10.8 nM.
The same measure, in the same setting: as for `CC(C)c1ccc(N2CC(CS(C)(=O)=O)C2)c2cnc(Nc3ccnc(-c4ccc(O)c(C=O)c4)n3)cc12` [Compound 47], the figure is more than 1000 nM; as for `COc1cc(N2CCC(N3CCN(C)CC3)CC2)ccc1Nc1ncc(Cl)c(Oc2ccccc2-c2cccc(O)c2C=O)n1` [Compound 19], more than 1000 nM.
The same measure, in the same setting: as for `COc1cc(N2CCC(N3CCN(C)CC3)CC2)ccc1Nc1ncc(Cl)c(Nc2ccc(NCc3ccc(C=O)c(O)c3)cc2)n1` [Compound 33], the figure is 76.5 nM; as for `CC(C)c1ccc(N2CC(CS(C)(=O)=O)C2)c2cnc(Nc3ccnc(-c4cccc(C=O)c4O)n3)cc12` [Compound 50], more than 1000 nM.
Regarding `CC(C)(O)Cn1/c(=N/C(=O)c2ccnc(C#Cc3cccc(C=O)c3O)c2)[nH]c2ccccc21` [Compound 137], the IC50 in test [2] was more than 1000 nM.
